Earlier results, collected in patent publication US20240299307A1, “Extended-release compositions comprising atomoxetine” (Tulex Pharmaceuticals, Inc., priority 2021, published 2024).
Read-outs that look alike come from different tables or passages of the source.

solubility (pH of about 1): about 18 mg/mL | solubility (pH of about 4.5 (highest solubility)): about 52 mg/mL | decrease of solubility relative to pH about 4.5 (pH of greater than about 4.5): approximately 10 fold | decrease of solubility relative to pH about 4.5 (pH of less than 4.5): approximately 3 fold
SMILES: CNCC[C@@H](Oc1ccccc1C)c1ccccc1 [ATO]
